Test results reported in patent US5952307A, “Basic α-aminoalkylphosphonate derivatives” (priority 1997, dated 1999).
Like-named read-outs stand apart in the source and are kept apart here.

Tests used:
[1] = target: T1, bovine trypsin (Bos taurus, UniProt P00760); assay: Inactivation rate of bovine trypsin, incubation method; assay type: biochemical; settings: Table II; 0.13 μM trypsin, 0.25-42 μM inhibitor, 80 mM Hepes pH 7.5, 1 mM CaCl2, 8% DMSO, 25° C.; NI = no inhibition
T1 sequence (P00760 24-246): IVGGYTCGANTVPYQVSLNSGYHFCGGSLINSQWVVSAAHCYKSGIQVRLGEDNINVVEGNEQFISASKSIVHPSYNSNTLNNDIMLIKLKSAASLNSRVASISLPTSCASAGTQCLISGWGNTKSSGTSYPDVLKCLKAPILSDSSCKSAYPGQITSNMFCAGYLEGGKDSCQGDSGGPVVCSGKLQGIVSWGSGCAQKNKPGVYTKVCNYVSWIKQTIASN
Procedure, shortened: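 Incubation method: trypsin pre-incubated with inhibitor (0.25-42 μM) at 25° C in 80 mM Hepes, 1 mM CaCl2, pH 7.5, 8% DMSO; aliquots withdrawn over time for residual activity on Z-Arg-SBzl thioester with DTNB or 4,4'-dithiodipyridine. Pseudo-first-order kobs from ln vt/vo versus time.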

[2] = target: T2, human thrombin (Homo sapiens, UniProt P00734); assay type: biochemical; settings: 25° C., NI = no inhibition
T2 construct: bovine trypsin, human thrombin
Procedure, shortened: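 Irreversible inactivation followed by incubation method at 25 °C: 0.07 μM thrombin with 0.25–42 μM inhibitor in 80 mM Hepes pH 7.5, 428 mM NaCl, 8% DMSO. Residual activity of withdrawn aliquots measured with thioester or 4-nitroanilide substrates; kobs from pseudo-first-order fits.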

[3] = target: T3, factor Xa (Homo sapiens, UniProt P00742); assay: Inactivation rate of factor Xa, incubation method; assay type: biochemical; settings: Table II; 0.42 μM factor Xa, 66 μM inhibitor, 80 mM Hepes pH 7.5, 428 mM NaCl, 8% DMSO, 25° C.
T3 construct: human thrombin, factor Xa, plasmin
T3 sequence (P00742 235-488 limits assumed): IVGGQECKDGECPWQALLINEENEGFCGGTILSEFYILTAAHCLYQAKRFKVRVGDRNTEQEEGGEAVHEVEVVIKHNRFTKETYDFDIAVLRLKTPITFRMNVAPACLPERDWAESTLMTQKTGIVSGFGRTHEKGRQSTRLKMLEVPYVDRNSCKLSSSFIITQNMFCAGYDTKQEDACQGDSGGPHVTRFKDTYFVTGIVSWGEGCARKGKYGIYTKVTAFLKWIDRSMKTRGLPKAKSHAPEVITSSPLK
T3 sequence (P00742 41-179 partner limits assumed): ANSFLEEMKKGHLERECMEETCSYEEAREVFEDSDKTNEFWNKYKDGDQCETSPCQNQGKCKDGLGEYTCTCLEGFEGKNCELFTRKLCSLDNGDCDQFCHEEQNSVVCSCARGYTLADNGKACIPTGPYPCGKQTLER
Description: (§1) Inactivation rates of serine proteases by aryl diesters of peptidyl derivatives of α-aminoalkylphosphonates were measured by the incubation method. An aliquot of inhibitor (25 or 50 μl) in Me2 SO was added to a buffered enzyme solution (0.01-2.3 μM) to initiate the inactivation. Aliquots (50 μl) were withdrawn at various intervals and the residual enzymatic activity was measured. Me2 SO concentration in the reaction mixture was 8-12% (v/v). A 0.1 M HEPES, 0.01 M CaCl2, pH 7.5 buffer was utilized for trypsin and trypsin-like enzymes. A 0.1 M HEPES, 0.5 M NaCl, pH 7.5, was utilized for the other serine proteases. Peptide thioesters or peptide nitroanilides with the appropriate sequences were used as substrates for various serine proteases. All peptide thioesters hydrolysis rates were measured with the assay mixture containing 4,4'-dithiodipyridine {ε324 =19800 M^-1 cm^-1; Grasetti & Murray, Arch. Biochem. Biophys. 1967, 119, 41-48}. Peptide 4-nitroanilide hydrolysis was measured at 410 nm {ε410 =8800 M^-1 cm^-1; Erlanger et al., Arch. Biochem. Biophys. 1961, 95, 271-278}. First order inactivation rate constants (Kobs) were obtained from plots of In vt /vo vs time, and the correlation coefficients were greater then 0.98.
^a Enzyme was incubated with the inhibitor in 250 μL of the proper
NaCl, 0.8 mM Mes, 9% glycerol and 8% DMSO; 0.42 μM factor Xa, 66 μM
inhibitor in an 80 mM Hepes, pH 7.5 buffer containing 428 mM NaCl and 8%
DMSO. Aliquots of 25 μL were withdrawn at various intervals and the
(§2) residual enzymatic activity was measured as described in experimental
(§3) section. The kobs values were calculated from pseudofirst-order

[4] = target: mast cell tryptase (Homo sapiens, UniProt Q15661); assay: Inactivation rate of mast cell tryptase, incubation method; assay type: biochemical; settings: Table III; enzyme 0.06-0.5 μM, inhibitor 0.25-42 μM, 9% DMSO, 25° C.; NI = no inhibition
Sequence of mast cell tryptase (Q15661 31-275): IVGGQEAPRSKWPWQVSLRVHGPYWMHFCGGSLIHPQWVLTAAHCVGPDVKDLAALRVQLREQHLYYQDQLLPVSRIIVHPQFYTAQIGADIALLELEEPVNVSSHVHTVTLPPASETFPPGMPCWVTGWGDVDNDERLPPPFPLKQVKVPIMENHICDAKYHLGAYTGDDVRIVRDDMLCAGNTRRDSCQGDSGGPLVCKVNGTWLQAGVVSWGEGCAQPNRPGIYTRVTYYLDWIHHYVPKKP
Procedure, shortened: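 Incubation method at 25 °C: 0.07 μM tryptase with 20–66 μM inhibitor in Hepes pH 7.5 containing heparin, glycerol and DMSO. Aliquots were withdrawn at intervals for residual activity on Z-Arg-SBzl or Z-Lys-SBzl with DTNB. Pseudo-first-order kobs came from ln(vt/v0) versus time.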

[5] = target: T4, plasmin (Homo sapiens, UniProt P00747); assay: Inactivation rate of plasmin, incubation method; assay type: biochemical; settings: Table III; for kobs /[I] plasmin: enzyme 0.06-0.5 μM, inhibitor 0.25-42 μM, 9% DMSO, 25° C., NI = no inhibition
T4 construct: factor Xa, plasmin, and urokinase
T4 sequence (P00747 581-810 limits assumed, species assumed): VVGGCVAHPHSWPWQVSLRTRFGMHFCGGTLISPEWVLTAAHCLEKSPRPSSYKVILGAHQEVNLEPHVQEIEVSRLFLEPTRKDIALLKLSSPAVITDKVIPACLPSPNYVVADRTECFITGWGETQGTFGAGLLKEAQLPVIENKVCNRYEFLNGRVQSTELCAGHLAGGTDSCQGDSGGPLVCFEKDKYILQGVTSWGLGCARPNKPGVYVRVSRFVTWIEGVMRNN
T4 sequence (P00747 97-580 partner limits assumed, species assumed): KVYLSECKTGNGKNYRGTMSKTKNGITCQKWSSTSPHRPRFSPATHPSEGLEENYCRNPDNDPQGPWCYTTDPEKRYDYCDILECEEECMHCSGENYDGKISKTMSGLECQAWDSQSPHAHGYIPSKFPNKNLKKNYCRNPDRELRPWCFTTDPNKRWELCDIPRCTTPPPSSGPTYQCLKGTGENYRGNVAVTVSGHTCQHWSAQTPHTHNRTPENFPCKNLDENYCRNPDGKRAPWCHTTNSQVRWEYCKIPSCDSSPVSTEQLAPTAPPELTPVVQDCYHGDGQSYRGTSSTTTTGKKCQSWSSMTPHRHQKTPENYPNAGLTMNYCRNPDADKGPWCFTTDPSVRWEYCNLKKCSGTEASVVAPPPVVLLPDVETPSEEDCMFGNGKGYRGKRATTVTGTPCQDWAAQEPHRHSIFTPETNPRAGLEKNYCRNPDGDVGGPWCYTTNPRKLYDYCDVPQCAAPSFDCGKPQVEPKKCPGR
Description: as §1
(§4) ^a Enzyme (0.06-0.5 μM) was incubated with the inhibitor (0.25-42
(§5) μM) in 250 μL of the proper buffer containing 9% DMSO at 25°
(§6) C. The final inhibition reaction mixtures are given in the footnote to
(§7) Table 1. Aliquots of 25 μL were withdrawn at various intervals and the
as §2, §3
^b Inhibitor concentration of 0.24 mM.

[6] = target: urokinase (Homo sapiens, UniProt P00749); assay: Inactivation rate of urokinase, incubation method; assay type: biochemical; settings: Table III; enzyme 0.06-0.5 μM, inhibitor 0.25-42 μM, 9% DMSO, 25° C.; NI = no inhibition
Description: as §1, §4, §5, §6, §7, §2, §3

[7] = target: T1, bovine trypsin; assay: Inactivation rate of bovine trypsin, incubation method; assay type: biochemical; settings: Table III; enzyme 0.06-0.5 μM, inhibitor 0.25-42 μM, 9% DMSO, 25° C.; NI = no inhibition
[8] = Hydrolysis (stability) in human plasma; assay type: in vitro ADME
Source text: Furthermore, they show excellent stability in human plasma. For example Suc-Val-Pro-Phe^P (OPh)2 has a hydrolysis half-time in human plasma of about 20 hrs. […] Thus they can be used under a variety of conditions. Phosphonates have the additional advantage of being very stable in plasma and will have a high effectiveness in vivo due to their long lifetimes.

[9] = Table II, 0.07 μM thrombin, 0.25-42 μM inhibitor, 80 mM Hepes pH 7.5, 428 mM NaCl, 8% DMSO
[10] = Table III, enzyme 0.06-0.5 μM, inhibitor 0.25-42 μM, 9% DMSO

Compound | kobs /[I] bovine trypsin [1] | kobs /[I] human thrombin [2, 9] | kobs /[I] factor Xa [3] | kobs /[I] mast cell tryptase [4] | kobs /[I] human thrombin [2, 10] | % Inh plasmin ([5]; inhibitor concentration of 0.24 mM) | kobs /[I] urokinase [6] | kobs /[I] bovine trypsin [7] | kobs /[I] plasmin [5] | hydrolysis half-time in human plasma [8]
CC(C)CC(NC(=O)OC(C)(C)C)C(=O)NCC(=O)NC(c1ccc(C(=N)N)cc1)P(=O)(Oc1ccccc1)Oc1ccccc1 (mixture of isomers) [Boc--D--Leu--Gly-(4-AmPhGly)^P (OPh)2] | 2,960 ± 300 M^-1 s^-1 | 1,187 ± 76 M^-1 s^-1 | 10 ± 0.4 M⁻¹ s⁻¹ | – | – | – | – | – | – | –
CC(C)(C)OC(=O)NC(Cc1ccccc1)C(=O)NCC(=O)NC(c1ccc(C(=N)N)cc1)P(=O)(Oc1ccccc1)Oc1ccccc1 (mixture of isomers) [Boc--D--Phe--Gly-(4-AmPhGly)^P (OPh)2] | 6,620 ± 835 M^-1 s^-1 | 2,225 ± 106 M^-1 s^-1 | 2.8 ± 0 M⁻¹ s⁻¹ | – | – | – | – | – | – | –
CC(C)CC(NC(=O)C(Cc1ccccc1)NC(=O)OC(C)(C)C)C(=O)NC(c1ccc(C(=N)N)cc1)P(=O)(Oc1ccccc1)Oc1ccccc1 (mixture of isomers) [Boc--D--Phe--Leu-(4-AmPhGly)^P (OPh)2] | 24 ± 2 M⁻¹ s⁻¹ | 921 ± 44 M⁻¹ s⁻¹ | 1.4 ± 0.4 M⁻¹ s⁻¹ | – | – | – | – | – | – | –
CC(C)CC(NC(=O)OC(C)(C)C)C(=O)NC(CC(=O)OC(C)(C)C)C(=O)N1CCCC1C(=O)NC(c1ccc(C(=N)N)cc1)P(=O)(Oc1ccccc1)Oc1ccccc1 (mixture of isomers) [Boc--Leu--Asp(O-t-Bu)--Pro-(4-AmPhGly)^P (OPh)2] | 670 ± 53 M⁻¹ s⁻¹ | 502 ± 21 M⁻¹ s⁻¹ | 8 ± 1 M⁻¹ s⁻¹ | – | – | – | – | – | – | –
CC(C)(C)OC(=O)NC(CO)C(=O)NC(c1ccc(C(=N)N)cc1)P(=O)(Oc1ccccc1)Oc1ccccc1 (mixture of isomers) [Boc--Ser-(4-AmPhGly)^P (OPh)2] | 20 ± 1 M⁻¹ s⁻¹ | 31 ± 2 M⁻¹ s⁻¹ | 3.5 ± 0.4 M⁻¹ s⁻¹ | – | – | – | – | – | – | –
N=C(N)c1ccc(C(NC(=O)CNC(=O)C(CCC(=O)O)NC(=O)OCc2ccccc2)P(=O)(Oc2ccccc2)Oc2ccccc2)cc1 (mixture of isomers) [Cbz--Glu--Gly-(4-AmPhGly)^P (OPh)2] | 70 ± 5 M⁻¹ s⁻¹ | 46 ± 5 M⁻¹ s⁻¹ | 1.4 ± 0.1 M⁻¹ s⁻¹ | – | – | – | – | – | – | –
CC(C)CC(N)C(=O)NC(CC(=O)O)C(=O)N1CCCC1C(=O)NC(c1ccc(C(=N)N)cc1)P(=O)(Oc1ccccc1)Oc1ccccc1 (mixture of isomers) [Leu--Asp--Pro-(4-AmPhGly)^P (OPh)2] | 204 ± 19 M⁻¹ s⁻¹ | 65 ± 1 M⁻¹ s⁻¹ | 1.3 ± 0.2 M⁻¹ s⁻¹ | – | – | – | – | – | – | –
NCCCCCC(NC(=O)[C@@H]1CCCN1C(=O)CC(c1ccccc1)c1ccccc1)P(=O)(Oc1ccccc1)Oc1ccccc1 (stereo partly drawn) [3,3-Diphenylpropanoyl-Pro-HomoLys^P (OPh)2] | – | – | – | 1.1 ± 0.0 M⁻¹ s⁻¹ | 224 ± 8 M⁻¹ s⁻¹ | 50% | 2.1 ± 0.2 M⁻¹ s⁻¹ | 16 ± 1 M⁻¹ s⁻¹ | – | –
Cl.NCCCCC(NC(=O)[C@@H]1CCCN1C(=O)c1cccc(Oc2ccccc2)c1)P(=O)(Oc1ccccc1)Oc1ccccc1 (stereo partly drawn) [3-Phenoxybenzoyl-Pro--Lys^P (OPh)2, Diphenyl 1-(N-(3-Phenoxybenzoylprolyl)amino)-5-aminopentanephosphonate Hydrochloride] | – | – | – | 16 ± 1 M⁻¹ s⁻¹ | 1,142 ± 52 M^-1 s^-1 | – | 1.6 ± 0.1 M⁻¹ s⁻¹ | 19,380 ± 300 M^-1 s^-1 | 7.4 ± 0.6 M⁻¹ s⁻¹ | –
Cl.NCCCCCC(NC(=O)[C@@H]1CCCN1C(=O)c1cccc(Oc2ccccc2)c1)P(=O)(Oc1ccccc1)Oc1ccccc1 (stereo partly drawn) [3-Phenoxybenzoyl-Pro-HomoLys^P (OPh)2, Diphenyl 1-(N-(3-Phenoxybenzoylprolyl)amino)-6-aminohexanephosphonate Hydrochloride] | – | – | – | 10 ± 3 M⁻¹ s⁻¹ | 27 ± 5 M⁻¹ s⁻¹ | – | 22 ± 1 M⁻¹ s⁻¹ | 116 ± 34 M⁻¹ s⁻¹ | 4.6 ± 0.1 M⁻¹ s⁻¹ | –
Cl.NCCCCC(NC(=O)OCc1ccccc1)P(=O)(Oc1ccccc1)Oc1ccccc1 (stereo not drawn) [Cbz--Lys^P (OPh)2, Diphenyl N-(N-Benzyloxycarbonyl)amino(4-aminobutyl)methanephosphonate Hydrochloride] | – | – | – | 17 ± 1 M⁻¹ s⁻¹ | 17 M⁻¹ s⁻¹ | – | 15 ± 2 M⁻¹ s⁻¹ | 6,235 M^-1 s^-1 | 8.2 ± 0.4 M⁻¹ s⁻¹ | –
CC(C)[C@H](NC(=O)CCC(=O)O)C(=O)N1CCC[C@H]1C(=O)NC(Cc1ccccc1)P(=O)(Oc1ccccc1)Oc1ccccc1 (stereo partly drawn) [Suc-Val-Pro-Phe^P (OPh)2] | – | – | – | – | – | – | – | – | – | about 20 hrs
